How the values were obtained:
PP2A = settings: used alone (Lu et al. 2009a); cited from earlier work
[1] = in vivo; with temozolomide, doxorubicin, docetaxel; cited from earlier work
[2] = Solubility in toluene (hot toluene trituration); assay type: physicochemical; settings: crude solids digested in hot toluene for 1 hour
Experimental: The crude solids (1 g) were digested in hot toluene (15 mL) for 1 hour. The slurry was cooled to room temperature and the solids were isolated by filtration. The solids were dried at 80° C., under vacuum, to afford 0.86 g (86%). […] Based on this observation, in the following experiment toluene was further tried as an anti-solvent.

[3] = Solubility in water (water/2-propanol recrystallization); assay type: physicochemical; settings: crude solids, ambient temperature
Experimental: The crude solids (0.5 g) were dissolved in water (1 mL) and 2-propanol (5 mL) was charged. The resulting slurry was stirred at room temperature for 1 hour, and then isolated by filtration. The solids were washed with 2-propanol (to cover the solids) and air dried to afford 0.1 g (20% recovery yield).

## CN1CCN(C(=O)C2C(C(=O)O)[C@H]3CC[C@@H]2O3)CC1 (stereo in doubt) [LB100, 3-(4-methylpiperazine-1-carbonyl)-7-oxabicyclo[2.2.1] heptane-2-carboxylic acid]
PP2A
  anti-cancer activity: has anti-cancer activity when used alone
[1]
  potentiation of anti-tumor activity of standard cytotoxic anti-cancer drugs: significantly potentiates in vivo
  toxicity in combination with cytotoxic anti-cancer drugs: without observable increase in toxicity
[2]
  solubility in toluene: low solubility of the material in toluene
[3]
  solubility in water: high solubility in water
